Assay results published in ChEMBL document CHEMBL1201862, “PubChem BioAssay data set” (2004).
Activity calls are given as the source filed them.

Assays:
Staphylococcus aureus = test: Inhibitors of Bacterial Quorum Sensing Structure Activity Relationship (SAR) Analysis: Dose Response Assay. [Related pubchem assays: 700, 527 ]; assay type: functional, organism-based
Wee1-like protein kinase = Wee1-like protein kinase (Homo sapiens, UniProt P30291); test: HeLa cell cycle G2/M accumulation – FACS, mechanism study for Wee1 degradation inhibitor project, late-stage follow-up, panel member Wee1 Degradation (AID 2088)
Sequence of Wee1-like protein kinase (P30291 whole entry): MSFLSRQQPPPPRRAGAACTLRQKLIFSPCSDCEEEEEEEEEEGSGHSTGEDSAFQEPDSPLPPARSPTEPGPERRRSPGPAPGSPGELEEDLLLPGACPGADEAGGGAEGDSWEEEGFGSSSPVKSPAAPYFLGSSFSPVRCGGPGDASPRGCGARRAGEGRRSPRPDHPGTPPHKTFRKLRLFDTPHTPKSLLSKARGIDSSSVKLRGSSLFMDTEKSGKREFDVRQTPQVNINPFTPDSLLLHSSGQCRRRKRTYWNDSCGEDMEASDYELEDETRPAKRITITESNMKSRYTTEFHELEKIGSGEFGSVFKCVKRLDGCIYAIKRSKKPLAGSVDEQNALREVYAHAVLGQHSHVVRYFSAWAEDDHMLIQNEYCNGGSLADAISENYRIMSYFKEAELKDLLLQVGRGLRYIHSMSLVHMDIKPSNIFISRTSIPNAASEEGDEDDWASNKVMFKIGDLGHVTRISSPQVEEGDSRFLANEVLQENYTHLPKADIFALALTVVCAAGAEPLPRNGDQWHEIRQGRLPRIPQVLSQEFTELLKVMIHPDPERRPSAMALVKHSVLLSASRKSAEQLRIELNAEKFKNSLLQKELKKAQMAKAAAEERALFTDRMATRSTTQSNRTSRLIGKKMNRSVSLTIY

[1] = target: G2/mitotic-specific cyclin-B1 (Homo sapiens, UniProt P14635); test: HeLa cell cycle G2/M accumulation – FACS, mechanism study for Wee1 degradation inhibitor project, late-stage follow-up, panel member Cyclin B Degradation (AID 2088)
Sequence of G2/mitotic-specific cyclin-B1 (P14635 whole entry): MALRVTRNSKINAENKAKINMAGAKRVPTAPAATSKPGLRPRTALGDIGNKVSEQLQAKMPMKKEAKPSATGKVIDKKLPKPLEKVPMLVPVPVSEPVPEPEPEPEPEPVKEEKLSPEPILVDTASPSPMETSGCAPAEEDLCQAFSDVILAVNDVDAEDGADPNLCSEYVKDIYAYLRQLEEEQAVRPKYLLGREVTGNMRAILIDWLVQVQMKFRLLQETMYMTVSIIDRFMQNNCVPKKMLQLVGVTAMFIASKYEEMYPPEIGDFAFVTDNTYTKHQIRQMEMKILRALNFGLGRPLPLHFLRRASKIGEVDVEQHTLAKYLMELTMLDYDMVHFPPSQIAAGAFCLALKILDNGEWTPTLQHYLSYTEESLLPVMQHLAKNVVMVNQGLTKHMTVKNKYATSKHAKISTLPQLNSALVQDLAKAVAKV

[2] = HEK-293T viability loss after treatment – luminescence, T-cell screen hits, cytotoxicity control for TCR NF-kB inhibitor project, dose response (AID 489026); assay type: functional, cell-based;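 further: cells exposed to compound about 14 hours before the viability readout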
HeLa = test: Cytotoxicity counterscreen assay for transcriptional activators of heat shock protein 70 (Hsp70). [Related pubchem assays: 1203, 1252 ]; assay type: functional; details: Homo sapiens;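 further: cells exposed to compound for 16 hours before readout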
BJ [3] = test: BJ-TERT fibroblast viability loss – cell-based, RAS-independent, luminescence, dose response (AID 1933); assay type: functional; details: Homo sapiens
[4] = Luminescence Cell-Based Dose Confirmation HTS to Identify Activators of 5'UTR Stem-Loop Driven Alpha-Synuclein mRNA Translation in H4 Neuroglioblastoma Cells. [Related pubchem assays: 1829 (Project Summary), 1814 (Primary HTS)]; assay type: functional
BJ [5] = test: cells; assay type: functional, cell-based; details: Homo sapiens
BJ [6] = test: growth inhibition of engineered Ras-driven BJ cells – cell-based, alamar blue fluorescence, cherrypicked samples, dose response (AID 2631); assay type: functional; details: Homo sapiens;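 further: confirmatory dose-response assay in RAS-dependent BJ fibroblasts engineered with TERT, LT and ST, with cytotoxicity read by fluorescence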
INS1 = test: INS-1E survival protection against cytokine death – cell-based, luminescence, retest, dose response (AID 449756); assay type: functional; details: Rattus norvegicus;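 further: cell death triggered by IL-1 beta plus TNF-alpha plus IFN-gamma mixture; protective hits raise ATP signal compared with cytokine alone wells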
BJ [7] = test: BJ-TERT-LT-ST fibroblast viability loss – cell-based, RAS-independent, luminescence, dose response (AID 1935); assay type: functional; details: Homo sapiens;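 further: BJ fibroblasts immortalized with TERT plus LT and ST oncogenes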
H4 = test: Luminescence Cell-Based Dose Response HTS to Identify Activators of 5'UTR Stem-Loop Driven Prion Protein mRNA Translation in H4 Neuroglioblastoma Cells. [Related pubchem assays: 1829 (Project Summary), 1814 (Primary HTS)]; assay type: functional; details: Homo sapiens
[8] = target: Heat shock protein HSP 90-alpha (Homo sapiens, UniProt P07900); assay type: functional, organism-based
[9] = Luminescence Cell-Based Dose Response HTS to Identify Activators of Luciferase Translation or Activity in H4 […] Cells. [Related pubchem assays: 1829 (Project Summary), 1814 (Primary HTS)]; assay type: functional
[10] = DRD fibroblast viability loss – cell-based, non-viral oncogenic, luminescence, dose response (AID 1934); assay type: functional; details: Homo sapiens
[11] = target: Neuropeptides B/W receptor type 1 (Homo sapiens, UniProt P48145); test: Fluorescence-based dose response cell-based high throughput screening assay to identify antagonists of the G-protein coupled receptor 7 (GPR7). [Related pubchem assays: 1952 (Screening assay (GPR7 antagonists).), 1880 (Summary AID.)]; assay type: functional
Sequence of Neuropeptides B/W receptor type 1 (P48145 whole entry): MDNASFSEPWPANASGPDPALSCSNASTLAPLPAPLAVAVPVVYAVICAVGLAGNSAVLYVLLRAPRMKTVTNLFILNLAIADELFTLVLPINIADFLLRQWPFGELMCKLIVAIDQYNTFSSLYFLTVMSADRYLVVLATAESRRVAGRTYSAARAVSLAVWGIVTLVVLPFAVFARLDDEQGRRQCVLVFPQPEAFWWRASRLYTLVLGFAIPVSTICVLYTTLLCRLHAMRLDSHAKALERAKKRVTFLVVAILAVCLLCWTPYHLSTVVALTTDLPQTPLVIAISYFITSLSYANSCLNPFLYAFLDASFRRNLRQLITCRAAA

[12] = target: T1, Melanin-concentrating hormone receptor 1 (Homo sapiens, UniProt Q99705); test: Fluorescence-based counterscreen for antagonists of the G-protein coupled receptor 7 (GPR7): cell-based high throughput dose response assay to identify antagonists of the melanin-concentrating hormone receptor 1 (MCHR1).; assay type: functional
T1 sequence (Q99705 whole entry): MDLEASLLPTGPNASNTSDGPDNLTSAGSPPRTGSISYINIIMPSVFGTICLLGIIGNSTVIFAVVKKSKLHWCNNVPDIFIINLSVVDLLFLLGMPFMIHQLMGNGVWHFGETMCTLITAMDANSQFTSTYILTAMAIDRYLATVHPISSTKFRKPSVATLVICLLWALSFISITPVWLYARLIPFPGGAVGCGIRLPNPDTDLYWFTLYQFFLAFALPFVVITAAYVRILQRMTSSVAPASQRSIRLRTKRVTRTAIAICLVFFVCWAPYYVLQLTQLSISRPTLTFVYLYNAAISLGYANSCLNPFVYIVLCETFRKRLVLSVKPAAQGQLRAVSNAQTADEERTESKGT

[13] = target: Matrix metalloproteinase-14 (Homo sapiens, UniProt P50281); test: Dose Response confirmation of uHTS hits for a small molecule inhibitors of MT1-MMP activation in a fluorescence assay set 1.; assay type: functional
Nonstructural protein 1 = Nonstructural protein 1 (Influenza A virus, UniProt Q194T2); assay type: functional, Influenza A virus (A/California/07/2009(H1N1))
Sequence of Nonstructural protein 1 (Q194T2 whole entry): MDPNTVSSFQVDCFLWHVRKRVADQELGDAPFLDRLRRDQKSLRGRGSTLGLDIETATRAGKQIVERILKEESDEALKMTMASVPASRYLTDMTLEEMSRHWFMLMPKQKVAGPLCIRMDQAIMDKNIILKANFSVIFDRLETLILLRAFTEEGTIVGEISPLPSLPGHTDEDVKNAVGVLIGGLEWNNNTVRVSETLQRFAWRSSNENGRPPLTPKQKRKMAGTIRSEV

Protein Rev = Protein Rev (Human immunodeficiency virus type 1 group M subtype B (isolate WMJ22)(HIV-1), UniProt P05866); test: inhibitors of Rev protein–RRE RNA complex – biochemical, protein-RNA interaction, dose response (AID 842); parameters: species or system Human immunodeficiency virus 1
Sequence of Protein Rev (P05866 whole entry): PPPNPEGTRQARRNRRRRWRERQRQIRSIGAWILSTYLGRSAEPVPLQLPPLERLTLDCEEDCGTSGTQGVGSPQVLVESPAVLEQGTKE

[14] = target: T1, Melanin-concentrating hormone receptor 1; test: Late-stage fluorescence-based counterscreen for antagonists of the G-protein coupled receptor 7 (GPR7): cell-based dose response assay to identify antagonists of the melanin-concentrating hormone receptor 1 (MCHR1). [Related pubchem assays (depositor defined):AID1861, AID1880, AID1952, AID2148, AID2251, AID2257, AID485339]; assay type: functional
[15] = target: Serine/threonine-protein phosphatase PP1-alpha catalytic subunit (Homo sapiens, UniProt P62136); test: inhibition of protein phosphatase 1 activity – biochemical, fluorescence, dose response (AID 2403);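 further: phosphatase turnover of OMFP into fluorescent 3-O-methylfluorescein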
Sequence of Serine/threonine-protein phosphatase PP1-alpha catalytic subunit (P62136 whole entry): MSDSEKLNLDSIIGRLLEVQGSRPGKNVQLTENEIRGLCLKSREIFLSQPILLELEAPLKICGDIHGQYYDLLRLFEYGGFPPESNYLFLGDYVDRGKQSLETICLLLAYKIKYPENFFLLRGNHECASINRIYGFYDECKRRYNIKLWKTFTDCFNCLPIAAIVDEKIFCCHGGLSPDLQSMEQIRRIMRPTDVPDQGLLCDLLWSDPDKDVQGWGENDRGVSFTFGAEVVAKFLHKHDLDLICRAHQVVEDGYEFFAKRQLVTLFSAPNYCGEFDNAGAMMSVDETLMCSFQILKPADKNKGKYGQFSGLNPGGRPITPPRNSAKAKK

[16] = bead-based luminescence quenchers, dual-tagged ARNT – biochemical, AlphaScreen, cherry-pick, artefact control for ARNT-TACC3 interaction inhibitor project, dose response (AID 651705); assay type: functional;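 further: AlphaScreen bead proximity signal that flags compounds interfering with the detection technology; potency reflects signal decrease which marks the compound as an assay artifact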
[17] = target: T2, Serine/threonine-protein phosphatase (Homo sapiens, UniProt Q9BPW0); test: Counterscreen for inhibitors of PP1: fluorescence-based biochemical high throughput dose response assay to identify inhibitors of Protein Phosphatase 5 (PP5). [Related pubchem assays: 2034 (Summary (PP5 inhibitors)), 1987 (PP5 inhibitors in singlate), 2235 (PP1 inhibitors in singlate)]
T2 sequence (Q9BPW0 whole entry): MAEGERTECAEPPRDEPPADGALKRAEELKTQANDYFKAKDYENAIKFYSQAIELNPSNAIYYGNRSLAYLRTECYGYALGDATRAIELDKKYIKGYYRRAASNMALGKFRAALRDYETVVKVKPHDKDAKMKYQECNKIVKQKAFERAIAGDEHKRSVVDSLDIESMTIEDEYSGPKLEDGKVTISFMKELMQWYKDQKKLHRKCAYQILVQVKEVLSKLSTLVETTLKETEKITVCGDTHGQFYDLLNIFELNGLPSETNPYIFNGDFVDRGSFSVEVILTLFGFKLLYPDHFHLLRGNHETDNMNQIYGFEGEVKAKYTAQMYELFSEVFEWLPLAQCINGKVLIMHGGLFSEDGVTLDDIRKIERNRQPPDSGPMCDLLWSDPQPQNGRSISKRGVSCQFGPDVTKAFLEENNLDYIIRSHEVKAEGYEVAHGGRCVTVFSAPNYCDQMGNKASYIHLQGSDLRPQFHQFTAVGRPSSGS

[18] = target: Luciferin 4-monooxygenase (Photinus pyralis, UniProt P08659); test: Counter Screen for Luciferase-based Assay Positives. [Related pubchem assays: 620, 618, 411 ]
Sequence of Luciferin 4-monooxygenase (P08659 whole entry): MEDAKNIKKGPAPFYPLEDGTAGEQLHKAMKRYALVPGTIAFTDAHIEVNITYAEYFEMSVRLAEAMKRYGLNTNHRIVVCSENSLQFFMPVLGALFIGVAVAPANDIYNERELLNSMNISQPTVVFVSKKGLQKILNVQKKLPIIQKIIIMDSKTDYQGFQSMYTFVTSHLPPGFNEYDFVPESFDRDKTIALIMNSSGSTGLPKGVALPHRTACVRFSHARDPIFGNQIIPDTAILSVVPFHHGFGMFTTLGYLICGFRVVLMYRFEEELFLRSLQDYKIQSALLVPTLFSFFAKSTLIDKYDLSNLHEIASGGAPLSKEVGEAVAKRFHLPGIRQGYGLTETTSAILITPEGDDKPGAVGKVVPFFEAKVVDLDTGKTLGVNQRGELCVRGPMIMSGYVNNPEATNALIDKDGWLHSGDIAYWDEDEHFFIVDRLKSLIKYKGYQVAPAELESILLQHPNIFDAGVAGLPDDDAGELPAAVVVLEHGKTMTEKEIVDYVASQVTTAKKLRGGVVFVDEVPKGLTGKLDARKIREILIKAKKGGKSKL

HT-1080 = test: HT1080 cell viability loss – fluorescence readout (AID 620); assay type: functional, cell-based; details: Homo sapiens
[19] = target: Dual specificity protein phosphatase 3 (Homo sapiens, UniProt P51452); test: inhibition constants for human DUSP3 – biochemical, colorimetric, SAR follow-up (AID 2004)
Sequence of Dual specificity protein phosphatase 3 (P51452 whole entry): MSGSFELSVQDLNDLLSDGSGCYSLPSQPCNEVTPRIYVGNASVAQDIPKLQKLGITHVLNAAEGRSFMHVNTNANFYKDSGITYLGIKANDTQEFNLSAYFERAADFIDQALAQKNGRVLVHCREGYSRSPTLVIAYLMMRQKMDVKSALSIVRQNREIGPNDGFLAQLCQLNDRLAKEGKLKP

[20] = target: T3, Heat shock 70 kDa protein 1A (Homo sapiens, UniProt P0DMV8); test: small molecules displacing fluorescent ligand from Hsp70 – biochemical, fluorescence polarization, primary screen (AID 583)
T3 sequence (P0DMV8 whole entry): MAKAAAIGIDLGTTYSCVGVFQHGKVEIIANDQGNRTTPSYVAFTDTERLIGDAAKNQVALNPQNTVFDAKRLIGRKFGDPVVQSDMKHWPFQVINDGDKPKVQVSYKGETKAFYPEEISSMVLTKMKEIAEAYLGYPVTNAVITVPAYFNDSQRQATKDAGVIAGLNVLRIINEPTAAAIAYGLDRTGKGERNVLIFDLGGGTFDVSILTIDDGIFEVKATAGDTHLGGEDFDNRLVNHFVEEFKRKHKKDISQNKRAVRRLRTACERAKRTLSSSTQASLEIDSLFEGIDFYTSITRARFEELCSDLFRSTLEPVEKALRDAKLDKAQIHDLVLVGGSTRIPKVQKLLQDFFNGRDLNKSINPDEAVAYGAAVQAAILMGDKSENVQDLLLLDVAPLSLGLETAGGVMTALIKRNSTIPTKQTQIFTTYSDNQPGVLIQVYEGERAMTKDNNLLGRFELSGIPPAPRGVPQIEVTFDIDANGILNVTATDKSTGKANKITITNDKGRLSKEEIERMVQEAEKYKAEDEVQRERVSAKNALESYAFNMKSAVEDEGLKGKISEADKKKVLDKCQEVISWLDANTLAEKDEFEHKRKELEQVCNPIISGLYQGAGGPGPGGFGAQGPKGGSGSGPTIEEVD

[21] = target: T4, Replicative DNA helicase DnaB (Mycobacterium tuberculosis, UniProt P9WMR3); test: DnaB intein splicing inhibitors, dose response, biochemical, cell-free fluorescence (AID 449749); assay type: functional
T4 sequence (P9WMR3 whole entry): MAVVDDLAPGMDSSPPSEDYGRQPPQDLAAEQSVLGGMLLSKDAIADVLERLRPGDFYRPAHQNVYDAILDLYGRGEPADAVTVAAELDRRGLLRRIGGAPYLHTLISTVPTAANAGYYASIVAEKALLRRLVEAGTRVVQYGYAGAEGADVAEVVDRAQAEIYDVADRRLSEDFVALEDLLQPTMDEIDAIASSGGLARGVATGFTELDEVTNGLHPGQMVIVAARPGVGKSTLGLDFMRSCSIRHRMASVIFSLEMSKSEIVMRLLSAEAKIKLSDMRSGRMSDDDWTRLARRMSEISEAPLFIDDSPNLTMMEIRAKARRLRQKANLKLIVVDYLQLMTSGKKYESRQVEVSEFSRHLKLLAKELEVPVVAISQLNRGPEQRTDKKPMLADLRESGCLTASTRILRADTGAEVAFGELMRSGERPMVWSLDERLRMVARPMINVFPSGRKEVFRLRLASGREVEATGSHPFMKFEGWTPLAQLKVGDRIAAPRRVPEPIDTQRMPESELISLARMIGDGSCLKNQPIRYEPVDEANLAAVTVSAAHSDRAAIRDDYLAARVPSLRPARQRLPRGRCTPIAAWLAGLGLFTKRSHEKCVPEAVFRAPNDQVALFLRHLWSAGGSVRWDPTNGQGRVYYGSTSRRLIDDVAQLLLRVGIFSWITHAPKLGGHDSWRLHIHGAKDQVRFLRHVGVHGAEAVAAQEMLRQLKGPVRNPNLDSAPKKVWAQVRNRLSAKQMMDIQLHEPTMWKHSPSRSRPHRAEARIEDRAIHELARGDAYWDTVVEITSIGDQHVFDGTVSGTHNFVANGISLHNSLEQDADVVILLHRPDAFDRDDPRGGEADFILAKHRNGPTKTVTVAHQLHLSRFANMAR

Protein RecA = target: T5, Protein RecA (Mycobacterium tuberculosis, UniProt P9WHJ3); test: Fluorescence Cell-Free Homogeneous Dose Retest to Identify Inhibitors of RecA-Intein Splicing Activity. [Related pubchem assays (depositor defined):AID2097, AID2223, AID489010, AID492950]; assay type: functional
T5 sequence (P9WHJ3 whole entry): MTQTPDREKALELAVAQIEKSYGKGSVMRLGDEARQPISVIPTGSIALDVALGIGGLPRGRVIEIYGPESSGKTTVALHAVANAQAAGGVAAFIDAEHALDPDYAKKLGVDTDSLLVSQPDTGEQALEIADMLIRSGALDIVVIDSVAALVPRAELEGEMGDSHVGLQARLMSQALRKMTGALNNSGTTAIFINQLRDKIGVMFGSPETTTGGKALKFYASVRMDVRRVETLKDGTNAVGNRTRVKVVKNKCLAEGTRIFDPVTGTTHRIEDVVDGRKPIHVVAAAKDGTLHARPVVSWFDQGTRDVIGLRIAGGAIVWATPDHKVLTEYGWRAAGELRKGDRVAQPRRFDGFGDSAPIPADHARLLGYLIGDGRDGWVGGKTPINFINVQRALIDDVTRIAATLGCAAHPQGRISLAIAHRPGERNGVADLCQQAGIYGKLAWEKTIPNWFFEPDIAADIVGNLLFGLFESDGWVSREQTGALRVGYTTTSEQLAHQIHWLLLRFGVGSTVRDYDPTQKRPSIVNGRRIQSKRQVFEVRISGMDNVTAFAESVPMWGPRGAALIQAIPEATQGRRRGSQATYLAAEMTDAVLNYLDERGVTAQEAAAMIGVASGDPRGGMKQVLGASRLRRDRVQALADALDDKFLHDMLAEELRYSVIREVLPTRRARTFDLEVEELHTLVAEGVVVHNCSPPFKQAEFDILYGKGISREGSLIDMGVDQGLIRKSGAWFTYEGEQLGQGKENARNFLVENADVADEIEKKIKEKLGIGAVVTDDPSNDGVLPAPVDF

[22] = target: T3, Heat shock 70 kDa protein 1A; test: small-molecule inhibition of Hsp70 – biochemical, TR-FRET (AID 786)

CC1CCN(C(C(=O)Nc2ccc3c(c2)OCO3)c2ccccc2)CC1 (stereo unspecified)
IC50 (Staphylococcus aureus): 0.976 µM (active)

Cc1cc(O)nc(-n2nc(C)cc2NC(=O)c2ccccc2Br)n1
EC50 (Wee1-like protein kinase): > 49.7 µM (inactive)
EC50 [1]: > 49.7 µM (inactive)

CC1C/C(=C/c2ccncc2)C(=O)/C(=C/c2ccncc2)C1 (stereo unspecified)
IC50 [2]: 54 µM (inactive)
CC50 (HeLa): > 1.22 µM (not active)
EC50 (BJ [3]): 1.1 µM (inconclusive)
EC50 [4]: > 120 µM (not active)
EC50 (BJ [5]): 1.01 µM (inconclusive)
EC50 (BJ [6]): 0.291 µM (active)
AC50 (INS1): 3.66 µM (active)
EC50 (BJ [7]): 2.3 µM (inconclusive)
EC50 (H4): > 120 µM (not active)
AC50 [8]: 4.23 µM (active)
EC50 [9]: > 60 µM (not active)
EC50 [10]: 2.23 µM (inconclusive)

O=C(Oc1ccc(C(=S)N2CCOCC2)cc1)c1ccccc1
IC50 [11]: > 43.8 µM (not active)
IC50 [12]: > 14.6 µM (not active)

CC1=NN(c2ccccc2)C(=O)C1N=Nc1ccc(N)cc1 (stereo unspecified)
IC50 [13]: > 80 µM (inactive)
IC50 (Nonstructural protein 1): 10.5 µM (active)
IC50 (Protein Rev): > 79.4 µM (not active)

COc1ccc(Oc2c(Cl)cnn(-c3cc(Cl)cc(Cl)c3)c2=O)cc1
IC50 [14]: 1.1 µM (active)

COc1cc(NS(=O)(=O)c2ccc(Nc3nc(-c4ccccn4)cs3)cc2)nc(OC)n1
IC50 [15]: 3.63 µM (active)
AC50 [16]: 88.3 µM (active)
IC50 [17]: > 67 µM (not active)

c1ccc(-c2ccc(-c3nc(-c4ccncc4)no3)cc2)cc1
EC50 [18]: 4.37 µM (active)
EC50 (HT-1080): > 50 µM (not active)

O=C(O)c1cccc2c1NC(c1ccc(Cl)cc1)C1CC=CC21 (stereo unspecified)
Ki [19]: 119 µM (inactive)

CC(=O)N1CCC2(CC1)C(C#N)=C(N)Oc1[nH]nc(C)c12
IC50 [20]: > 100 µM (not active)
AC50 [21]: 8.21 µM (active)
EC50 (Protein RecA): 1.36 µM (active)
IC50 [22]: > 100 µM (not active)
